{"source": "patent US20070281040A1", "about": "“COMBINATION THERAPY OF HEDGEHOG INHIBITORS, RADIATION AND CHEMOTHERAPEUTIC AGENTS” (THE UNIVERSITY OF CHICAGO, priority 2004, published 2007)", "key": {"Mia PcCa-2 cells": {"tested_on": "Mia PcCa-2 cells", "assay": "Annexin V-PE apoptosis assay", "type": "cell-based, human", "settings": "24 hours", "procedure": "(§1) Cyclopamine 4 μmol was added to culture media of exponentially growing cells with or without chemotherapeutic agents and irradiated at 12 hours. Cells were trypsinized after 24, 48 or 72 hours. Annexin levels were measured (Annexin V: PE Apoptosis Detection Kit, BD Biosciences Pharningen™, San Jose, Calif.) for 0.5×10^6 freshly detached cells. The presence of membrane permeabilization was monitored by 7-AAD (7-Amino-actinomycinD) staining per manufacturer's protocol. Cells were subsequently analyzed by FACScan (BD FACSCanto™, BD Biosciences Immunocytometry Systems™, San Jose, Calif. with the use of CellQuest software (BD CellQuest™ Pro, BD Biosciences Immunocytometry Systems™, San Jose, Calif. The percentage of apoptotic cells was calculated by scoring for cells positive for either annexin alone (early apoptotic) or both annexin and 7-AAD (late apoptotic). All experiments were done in triplicate."}, "Mia PaCa-2 cells": {"tested_on": "Mia PaCa-2 cells", "assay": "Colony formation assay", "procedure": "Mia PaCa-2 cells were grown in DMEM high glucose, and supplemented with L-glutamine, 10% fetal bovine serum (FBS), and penicillin/streptomycin 1%.\n250 to 1000 cells were plated in 60 mm dishes. Cells were incubated overnight. At twenty four hours cells were irradiated (3.5 Gy). Cyclopamine 2-10 μMol (Toronto Research Chemicals, TRC, supplier, Canada) was added to culture media, or combination of both. For chemotherapeutic agents, the drug was added to culture media at appropriate concentrations 24 hours after plating. Cultures were incubated for 10-14 days. […] Plating efficiency was normalized compared to control."}, "[1]": {"tested_on": "prostate cancer xenografts", "settings": "high dose treatment; cited from earlier work"}, "[2]": {"tested_on": "pancreatic cancer cell lines with over-activation of Hh pathway signaling", "settings": "cited from earlier work"}, "[3]": {"tested_on": "hedgehog expressing tumor cells", "type": "cell-based", "procedure": "as §1"}, "BxPC-3 cells": {"tested_on": "BxPC-3 cells", "assay": "Colony formation assay", "type": "cell-based, human", "procedure": "(§2) Cells were incubated overnight. […] Cultures were incubated for 10-14 days. […] Plating efficiency was normalized compared to control."}, "HCT 116 cells": {"tested_on": "HCT 116 cells", "assay": "Colony formation assay", "type": "cell-based, human", "procedure": "as §2"}, "[4]": {"tested_on": "murine tumor allografts of medulloblastoma", "settings": "mouse, in vivo; cited from earlier work"}, "[5]": {"tested_on": "hedgehog expressing tumor cells", "type": "cell-based", "remark": "listed apart in the source"}, "[6]": {"settings": "cyclopamine 4 μM and irradiation 3.5 Gy"}}, "note": "Like-named read-outs stand apart in the source and are kept apart here.", "data": [{"smiles": "CC(=O)O[C@H]1C(=O)[C@@]2(C)[C@H]([C@H](OC(=O)c3ccccc3)[C@]3(O)C[C@H](OC(=O)[C@H](O)[C@@H](NC(=O)c4ccccc4)c4ccccc4)C(C)=C1C3(C)C)[C@]1(OC(C)=O)CO[C@@H]1C[C@@H]2O", "note": "[taxol, Paclitaxel]", "values": [{"measurement": "apoptosis (AnnexinV staining)", "setting": "Mia PcCa-2 cells; taxol 1.7 nM", "result": 64.9, "unit": "%"}, {"measurement": "survival (colony formation)", "setting": "Mia PaCa-2 cells; taxol 3.5 nM alone", "result": 91, "unit": "%"}]}, {"smiles": "Nc1ccn([C@@H]2O[C@H](CO)[C@@H](O)C2(F)F)c(=O)n1", "note": "[Gemcitabine]", "values": [{"measurement": "survival (colony formation)", "setting": "Mia PaCa-2 cells; gemcitabine 7.3 nM alone", "result": 35, "unit": "%"}]}, {"smiles": "CC1=C2C[C@H]3[C@@H](CC=C4C[C@@H](O)CC[C@@]43C)[C@@H]2CC[C@]12O[C@@H]1C[C@H](C)CN[C@H]1[C@H]2C", "note": "[cyclopamine]", "values": [{"measurement": "apoptosis (AnnexinV staining)", "setting": "Mia PcCa-2 cells; cyclopamine 4 μMol", "result": 18.2, "unit": "%"}, {"measurement": "tumor response (in words)", "setting": "[1]", "result": "complete regression"}, {"measurement": "survival (colony formation)", "setting": "Mia PaCa-2 cells; cyclopamine 4 μM alone", "result": 29, "unit": "%"}, {"measurement": "survival (colony formation)", "setting": "Mia PaCa-2 cells; [6]", "result": 4, "unit": "%"}, {"measurement": "survival (colony formation)", "setting": "Mia PaCa-2 cells; cyclopamine 10 μM", "result": 7, "unit": "%"}, {"measurement": "cytotoxic effect when combined with irradiation (in words)", "setting": "Mia PaCa-2 cells; hedgehog expressing tumor cells", "result": "additive cytotoxic effect"}, {"measurement": "apoptosis (in words)", "setting": "[2]", "result": "induced apoptosis"}, {"measurement": "apoptosis of combination with radiation vs radiation alone (in words)", "setting": "[3]; cyclopamine 4 μMol and radiation 3.5 Gy", "result": "not significantly different from radiation alone"}, {"measurement": "apoptotic cells (Annexin assay)", "setting": "[3]; cyclopamine 4 μMol and radiation 3.5 Gy, 24 hours", "result": 32.11, "unit": "%"}, {"measurement": "apoptotic cells (Annexin assay)", "setting": "[3]; cyclopamine 4 μMol and radiation 3.5 Gy, 48 hours", "result": 28.5, "unit": "%"}, {"measurement": "apoptotic cells (Annexin assay)", "setting": "[3]; cyclopamine 4 μMol and radiation 3.5 Gy, 72 hours", "result": 32.3, "unit": "%"}, {"measurement": "apoptotic cells (Annexin assay)", "setting": "[3]; cyclopamine 4 μMol, 24 hours", "result": 18.15, "unit": "%"}, {"measurement": "apoptotic cells (Annexin assay)", "setting": "[3]; cyclopamine 4 μMol, 48 hours", "result": 29.8, "unit": "%"}, {"measurement": "apoptotic cells (Annexin assay)", "setting": "[3]; cyclopamine 4 μMol, 72 hours", "result": 32.9, "unit": "%"}, {"measurement": "survival (colony formation)", "setting": "BxPC-3 cells; [6]", "result": 7, "unit": "%"}, {"measurement": "survival (colony formation)", "setting": "BxPC-3 cells; cyclopamine 10 μM", "result": 11, "unit": "%"}, {"measurement": "survival (colony formation)", "setting": "BxPC-3 cells; cyclopamine 4 μMol alone", "result": 33, "unit": "%"}, {"measurement": "effect on survival following irradiation (in words)", "setting": "HCT 116 cells; cells that do not express the hedgehog pathway", "result": "did not have a significant effect on survival"}, {"measurement": "survival (colony formation)", "setting": "HCT 116 cells; [6]", "result": 35, "unit": "%"}, {"measurement": "survival (colony formation)", "setting": "HCT 116 cells; cyclopamine 10 μM", "result": 74, "unit": "%"}, {"measurement": "survival (colony formation)", "setting": "HCT 116 cells; cyclopamine 4 μMol alone", "result": 92, "unit": "%"}, {"measurement": "tumor response (in words)", "setting": "[4]", "result": "anti-tumor effects"}]}, {"smiles": "N.N.[Cl][Pt][Cl]", "note": "[Cisplatin]", "values": [{"measurement": "survival (colony formation)", "setting": "Mia PaCa-2 cells; cisplatin 0.8 μM alone", "result": 35, "unit": "%"}]}, {"smiles": "CC1=C2C(=O)C3C(CC=C4CC(O)CCC43C)C2CCC12OC1CC(C)CNC1C2C", "note": "(centres unmarked) [jervine]", "values": [{"measurement": "apoptosis of combination with radiation vs radiation alone (in words)", "setting": "[5]; jervine 4 μMol and radiation 3.5 Gy", "result": "differ little from radiation alone"}, {"measurement": "apoptosis (Annexin V assay, in words)", "setting": "[5]; jervine 4 μMol, 24, 48 or 72 hours", "result": "induces apoptosis in an increasing percentage of cells in a time-dependent manner"}, {"measurement": "cytotoxic effect when combined with irradiation (in words)", "setting": "[5]; jervine, hedgehog expressing tumor cells", "result": "additive cytotoxic effect"}]}]}
